Reference: publication PMC3376404 (Bioorganic & medicinal chemistry letters, 2012)
“And” between values parts separate entries of the source, which are not always exact repeats. Equal values may be shown once. Read-outs that look alike come from different tables or passages of the source.

Experiments:
[1] = Decomposition; format: physicochemical; conditions: for kobs (apparent rate constant for decomposition): no thiol, compound 70 μM, MOPS 250 mM, pH 7, MeCN 25% v/v, 24 °C
[2] = Reaction with the biological thiol glutathione; format: physicochemical; conditions: for kobs (pseudo-first-order rate constant, + thiol): compound 70 μM, 24 °C; for kobs (pseudo-first-order rate constant, + thiol) / second-order rate constant for reaction with GSH: GSH 700 μM, MOPS 300 mM, pH 7, MeCN 25% v/v; for second-order rate constant for reaction with GSH: estimated from kobs
[3] = 100 μM 1 in HEPES, 250 mM, pH 7, 24 °C, no organic co-solvent; cited from earlier work
[4] = HEPES buffer, 50 mM, pH 7, 24 °C, no organic co-solvent; cited from earlier work

Structure (SMILES)	kobs (apparent rate constant for decomposition) [1]	kobs (pseudo-first-order rate constant, + thiol) [2]	second-order rate constant for reaction with GSH [2]	kobs (decomposition) ([1]; 300 mM MOPS, pH 7.0)	kobs (decomposition) ([1]; 500 mM MOPS)	kobs (decomposition) ([1]; pH 6.5, 300 mM MOPS)	kobs (decomposition) ([1]; pH 7.5, 300 mM MOPS)	stability relative to the cis isomer in aqueous buffered solution ([1]; trans isomer 6 versus cis isomer 5)	rate constant (decomposition) [3]	t1/2 (decomposition) [3]	second-order rate constant for reaction with GSH [4]	times more stable than 5 against decomposition in aqueous buffer ([1]; relative to 5)	times more stable than 6 against decomposition in aqueous buffer ([1]; relative to 6)	times less reactive toward GSH than compound 5 ([2]; relative to 5)
CC1(C)[S+]([O-])SC(=O)[C@@]1(C)O (some centres unmarked) [Compound 5, 4-hydroxy-4,5,5-trimethyl-1,2-dithiolan-3-one-1-oxide]	13.2 ± 0.01 × 10^−3 min^-1	24.3 ± 0.1 × 10^−2 min^-1	5.73 M⁻¹ s⁻¹											
CC1(C)[S+]([O-])SC(=O)[C@]1(C)O (some centres unmarked) [Compound 6, 4-hydroxy-4,5,5-trimethyl-1,2-dithiolan-3-one-1-oxide]	6.2 ± 0.6 × 10^−3 min^-1	18.3 ± 0.2 × 10^−2 min^-1	4.35 M⁻¹ s⁻¹	1.5 ± 0.2 × 10^−2 min^-1 and 1.5 × 10^−2 min^-1	1.9 ± 0.2 × 10^−2 min^-1	0.0087 min⁻¹	0.047 min⁻¹	approximately two times more stable						
C/C1=C\[C@@H](O)C(=O)/C=C/C=C\c2csc(n2)[C@@H](C)NC(=O)C[C@@]2(CC1)[S+]([O-])SC(=O)[C@]2(C)O (some centres unmarked) [Compound 1, Leinamycin, reference compound]	0.408 ± 0.001 × 10^−3 min^-1	6.67 ± 0.01 × 10^−2 min^-1	1.58 M⁻¹ s⁻¹						0.00072 min⁻¹	16.1 h	10.4 M⁻¹ s⁻¹	approximately 30 times	~15 times	3.6 times
